Assay results taken from PubChem BioAssay (NCI).
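Step 1: Grow cells in 96-well plates. Step 2: Expose to compound for 48 hours at 5 concentrations. Step 3: Interpolate endpoints linearly; if unreached, use highest concentration. TGI: concentration producing complete growth inhibition.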

Experiments:
Test in all cases: NCI anticancer screen, dose series, 48 h
CCRF-CEM leukemia = system: CCRF-CEM leukemia
COLO 205 colon = system: COLO 205 colon
HCC-2998 colon = system: HCC-2998 colon
HS 578T breast = system: HS 578T breast
K-562 leukemia = system: K-562 leukemia
LOX IMVI melanoma = system: LOX IMVI melanoma
M14 melanoma = system: M14 melanoma
NCI-H23 lung = system: NCI-H23 lung
PC-3 prostate = system: PC-3 prostate
SW-620 colon = system: SW-620 colon
T-47D breast = system: T-47D breast

CCN1CN(c2ccccc2)C2(CCN(CC(CC3OCCO3)c3ccc(F)cc3)CC2)C1=O (centres undefined)
TGI (CCRF-CEM leukemia): > 43.1 µM
TGI (COLO 205 colon): 1.95 µM
TGI (HCC-2998 colon): 46.1 µM
TGI (HS 578T breast): > 64.1 µM
TGI (K-562 leukemia): > 87.6 µM
TGI (LOX IMVI melanoma): 35.1 µM
TGI (M14 melanoma): 9.54 µM
TGI (NCI-H23 lung): > 57.3 µM
TGI (PC-3 prostate): > 100 µM
TGI (SW-620 colon): > 40.4 µM
TGI (T-47D breast): 38.9 µM

CCO/C=N/C1=C(C#N)SC2=N/C(=C\c3ccccc3)C(=O)N21
TGI (CCRF-CEM leukemia): > 100 µM
TGI (COLO 205 colon): > 100 µM
TGI (HCC-2998 colon): > 100 µM
TGI (HS 578T breast): > 100 µM
TGI (K-562 leukemia): > 80.4 µM
TGI (LOX IMVI melanoma): > 100 µM
TGI (M14 melanoma): > 100 µM
TGI (NCI-H23 lung): > 100 µM
TGI (PC-3 prostate): > 100 µM
TGI (SW-620 colon): > 100 µM
TGI (T-47D breast): > 100 µM

C=C1C[C@H](O)[C@H](Br)C(C)(C)C12CCC(C)(Cl)C(Br)C2 (some centres undefined)
TGI (CCRF-CEM leukemia): 75 µM
TGI (COLO 205 colon): 2.29 µM
TGI (HCC-2998 colon): 15.5 µM
TGI (HS 578T breast): 23.6 µM
TGI (K-562 leukemia): 56.2 µM
TGI (LOX IMVI melanoma): 20.1 µM
TGI (M14 melanoma): 13.3 µM
TGI (NCI-H23 lung): 7.98 µM
TGI (PC-3 prostate): 1.77 µM
TGI (SW-620 colon): 20.4 µM
TGI (T-47D breast): 13.5 µM

O=C1CC(NCc2ccccc2)c2c(Cl)sc(Cl)c21 (centres undefined)
TGI (CCRF-CEM leukemia): 9.44 µM
TGI (COLO 205 colon): 56 µM
TGI (HCC-2998 colon): 35.7 µM
TGI (HS 578T breast): > 82.5 µM
TGI (K-562 leukemia): > 100 µM
TGI (LOX IMVI melanoma): 18.5 µM
TGI (M14 melanoma): > 63.6 µM
TGI (NCI-H23 lung): 39.5 µM
TGI (PC-3 prostate): 43 µM
TGI (SW-620 colon): > 87.4 µM
TGI (T-47D breast): > 100 µM

Cc1nc2sccn2c1/C=C1/C(=O)Nc2cccc(Cl)c21
TGI (CCRF-CEM leukemia): > 100 µM
TGI (COLO 205 colon): > 100 µM
TGI (HCC-2998 colon): > 100 µM
TGI (HS 578T breast): > 100 µM
TGI (K-562 leukemia): > 100 µM
TGI (LOX IMVI melanoma): > 100 µM
TGI (M14 melanoma): > 100 µM
TGI (NCI-H23 lung): > 100 µM
TGI (PC-3 prostate): > 100 µM
TGI (SW-620 colon): > 100 µM
TGI (T-47D breast): > 100 µM

COc1ccc(-c2c(C#N)c(S)n(NS(=O)(=O)c3ccccc3)c(=O)c2C#N)cc1
TGI (CCRF-CEM leukemia): > 100 µM
TGI (COLO 205 colon): > 100 µM
TGI (HCC-2998 colon): > 100 µM
TGI (HS 578T breast): > 100 µM
TGI (K-562 leukemia): > 100 µM
TGI (LOX IMVI melanoma): > 100 µM
TGI (M14 melanoma): > 100 µM
TGI (NCI-H23 lung): > 100 µM
TGI (PC-3 prostate): > 100 µM
TGI (SW-620 colon): > 100 µM
TGI (T-47D breast): > 100 µM

O=c1cc(-c2cccnc2)[nH]c2cc3c(cc12)OCO3
TGI (CCRF-CEM leukemia): > 100 µM
TGI (COLO 205 colon): > 100 µM
TGI (HCC-2998 colon): 19.4 µM
TGI (HS 578T breast): 69.6 µM
TGI (K-562 leukemia): > 100 µM
TGI (LOX IMVI melanoma): > 100 µM
TGI (M14 melanoma): > 100 µM
TGI (NCI-H23 lung): > 53.5 µM
TGI (PC-3 prostate): > 100 µM
TGI (SW-620 colon): > 100 µM
TGI (T-47D breast): > 100 µM

CCOC(=O)NN(C(=O)OCC)c1c(C)cc(C)cc1C
TGI (CCRF-CEM leukemia): > 100 µM
TGI (COLO 205 colon): > 100 µM
TGI (HCC-2998 colon): > 100 µM
TGI (HS 578T breast): > 100 µM
TGI (K-562 leukemia): > 100 µM
TGI (LOX IMVI melanoma): > 100 µM
TGI (M14 melanoma): > 100 µM
TGI (NCI-H23 lung): > 100 µM
TGI (PC-3 prostate): > 100 µM
TGI (SW-620 colon): > 100 µM
TGI (T-47D breast): > 100 µM

CCOC(=O)c1nnc2c(C#N)c(-c3ccccc3)c(C)n2c1N
TGI (CCRF-CEM leukemia): > 100 µM
TGI (COLO 205 colon): > 100 µM
TGI (HCC-2998 colon): > 100 µM
TGI (HS 578T breast): 85.7 µM
TGI (K-562 leukemia): > 100 µM
TGI (LOX IMVI melanoma): > 100 µM
TGI (M14 melanoma): > 100 µM
TGI (NCI-H23 lung): > 100 µM
TGI (PC-3 prostate): > 100 µM
TGI (SW-620 colon): > 100 µM
TGI (T-47D breast): > 100 µM

CC(=O)OC(Cc1c(O)c2c(C)cccc2oc1=O)C(C)(C)O (centres undefined)
TGI (CCRF-CEM leukemia): > 100 µM
TGI (COLO 205 colon): > 100 µM
TGI (HCC-2998 colon): > 100 µM
TGI (HS 578T breast): > 100 µM
TGI (K-562 leukemia): > 100 µM
TGI (LOX IMVI melanoma): > 100 µM
TGI (M14 melanoma): > 100 µM
TGI (NCI-H23 lung): > 100 µM
TGI (PC-3 prostate): > 100 µM
TGI (SW-620 colon): > 100 µM
TGI (T-47D breast): > 100 µM

c1ccc(CSC2(SCc3ccccc3)CCCCC2)cc1
TGI (CCRF-CEM leukemia): > 10 µM
TGI (COLO 205 colon): > 10 µM
TGI (HCC-2998 colon): > 10 µM
TGI (HS 578T breast): > 10 µM
TGI (K-562 leukemia): > 10 µM
TGI (LOX IMVI melanoma): > 10 µM
TGI (M14 melanoma): > 10 µM
TGI (NCI-H23 lung): > 10 µM
TGI (PC-3 prostate): > 10 µM
TGI (SW-620 colon): > 10 µM
TGI (T-47D breast): > 10 µM

O=C(c1ccccc1)N1C(=S)N(c2ccccn2)C(=Nc2ccccc2)C1=Nc1ccccc1
TGI (CCRF-CEM leukemia): > 24.7 µM
TGI (COLO 205 colon): > 52.7 µM
TGI (HCC-2998 colon): > 100 µM
TGI (HS 578T breast): > 61.8 µM
TGI (K-562 leukemia): > 60.9 µM
TGI (LOX IMVI melanoma): > 48.9 µM
TGI (M14 melanoma): > 100 µM
TGI (NCI-H23 lung): > 36.5 µM
TGI (PC-3 prostate): 35.8 µM
TGI (SW-620 colon): > 65.6 µM
TGI (T-47D breast): > 62.1 µM

CCOC(=O)c1nc2ccc(C(F)(F)F)cc2nc1Oc1ccc(C(=O)OC)cc1
TGI (CCRF-CEM leukemia): > 100 µM
TGI (COLO 205 colon): > 100 µM
TGI (HCC-2998 colon): > 100 µM
TGI (HS 578T breast): > 100 µM
TGI (K-562 leukemia): > 100 µM
TGI (LOX IMVI melanoma): > 100 µM
TGI (M14 melanoma): > 100 µM
TGI (NCI-H23 lung): > 100 µM
TGI (PC-3 prostate): > 100 µM
TGI (SW-620 colon): > 100 µM
TGI (T-47D breast): > 100 µM

COC(=O)/C=C1/OC(c2ccc(OC)cc2)=C(Cl)C1=O
TGI (CCRF-CEM leukemia): 17.7 µM
TGI (COLO 205 colon): 23.7 µM
TGI (HCC-2998 colon): 41.1 µM
TGI (HS 578T breast): 84 µM
TGI (K-562 leukemia): 11.3 µM
TGI (LOX IMVI melanoma): 21.2 µM
TGI (M14 melanoma): 35.4 µM
TGI (NCI-H23 lung): 34.9 µM
TGI (PC-3 prostate): 28.9 µM
TGI (SW-620 colon): 28.1 µM
TGI (T-47D breast): 36.6 µM

O=C(c1cc2c(c3ccccc13)NC1(CCCCC1)N=C2C(F)(F)F)C(F)(F)F
TGI (CCRF-CEM leukemia): 13.1 µM
TGI (COLO 205 colon): 18.1 µM
TGI (HCC-2998 colon): 10.4 µM
TGI (HS 578T breast): 29.3 µM
TGI (K-562 leukemia): 16.8 µM
TGI (LOX IMVI melanoma): 12.1 µM
TGI (M14 melanoma): 18.1 µM
TGI (NCI-H23 lung): 12.5 µM
TGI (PC-3 prostate): 12.4 µM
TGI (SW-620 colon): 18.7 µM
TGI (T-47D breast): 13.5 µM

CN(C)Cc1cc(N=Nc2ccc(Cl)cc2)cc(CN(C)C)c1O
TGI (CCRF-CEM leukemia): 7 µM
TGI (COLO 205 colon): 13.4 µM
TGI (HCC-2998 colon): 23.6 µM
TGI (HS 578T breast): 27.7 µM
TGI (K-562 leukemia): 6.75 µM
TGI (LOX IMVI melanoma): 16.1 µM
TGI (M14 melanoma): 37.6 µM
TGI (NCI-H23 lung): 40.7 µM
TGI (PC-3 prostate): 18.8 µM
TGI (SW-620 colon): 21.1 µM
TGI (T-47D breast): 33.6 µM

OC1CSc2nc3ccccc3n2C1 (centres undefined)
TGI (CCRF-CEM leukemia): > 100 µM
TGI (COLO 205 colon): > 100 µM
TGI (HCC-2998 colon): > 100 µM
TGI (HS 578T breast): 77.7 µM
TGI (K-562 leukemia): > 100 µM
TGI (LOX IMVI melanoma): > 100 µM
TGI (M14 melanoma): > 100 µM
TGI (NCI-H23 lung): > 100 µM
TGI (PC-3 prostate): > 100 µM
TGI (SW-620 colon): > 100 µM
TGI (T-47D breast): > 100 µM

CCOP(=O)(OCC)OC1c2[nH]cc(C(=O)OCc3ccccc3)c2-c2cc(C(=O)OC)[nH]c2C1OC (centres undefined)
TGI (CCRF-CEM leukemia): > 100 µM
TGI (COLO 205 colon): > 100 µM
TGI (HCC-2998 colon): > 78.9 µM
TGI (HS 578T breast): > 100 µM
TGI (K-562 leukemia): > 100 µM
TGI (LOX IMVI melanoma): > 41.4 µM
TGI (M14 melanoma): > 100 µM
TGI (NCI-H23 lung): > 100 µM
TGI (PC-3 prostate): > 100 µM
TGI (SW-620 colon): > 100 µM
TGI (T-47D breast): 24 µM

COc1ccc(/C=C2\C[C@H]3[C@@H]4CCC5=CC(=O)CC[C@]5(C)[C@H]4CC[C@]3(C)C2=O)cc1OC
TGI (CCRF-CEM leukemia): 47.2 µM
TGI (COLO 205 colon): 9.93 µM
TGI (HCC-2998 colon): > 100 µM
TGI (HS 578T breast): > 100 µM
TGI (K-562 leukemia): > 100 µM
TGI (LOX IMVI melanoma): > 100 µM
TGI (M14 melanoma): > 100 µM
TGI (NCI-H23 lung): > 100 µM
TGI (PC-3 prostate): > 100 µM
TGI (SW-620 colon): > 100 µM
TGI (T-47D breast): > 100 µM
